Series [1] relates to CCRF S-180. Put plainly: Cellular uptake in mouse S180 cells relative to [18F]FDG. The format is ADME, cell-based.
Series [2] deals with Heart. Put plainly: Biodistribution in mouse S180 cells xenografted Kunming mouse heart at 370 kBq/0.1 mL, iv after 15 mins by gamma counting. The format is ADME, organism-based, CCRF S-180. The note with it: in vivo, 0.25 h.
In series [3] the test system is Muscle tissue. Put plainly: Biodistribution in mouse S180 cells xenografted Kunming mouse muscle at 370 kBq/0.1 mL, iv after 15 mins by gamma counting. The format is ADME, organism-based, CCRF S-180. To be noted: in vivo, 0.25 h.
The subject of series [4] is Mus musculus. In words: Biodistribution in mouse S180 cells xenografted Kunming mouse right forelimb of tumor at 3.7 MBq, iv after 30 mins by PET imaging analysis. The note with it: in vivo, 0.5 h. The format is ADME, organism-based, Neoplasm, CCRF S-180.
The subject of series [5] is Nucleic Acid. Put plainly: Ratio of drug level in tumor to brain in mouse S180 cells xenografted Kunming mouse at 370 kBq/0.1 mL, iv after 120 mins by gamma counting. The format is ADME, organism-based, CCRF S-180. The note with it: in vivo, 2 h.
The test system of the next series is Blood. Put plainly: Biodistribution in mouse S180 cells xenografted Kunming mouse blood at 370 kBq/0.1 mL, iv after 120 mins by gamma counting. The series is classed as ADME, organism-based, CCRF S-180. To be noted: in vivo, 2 h.
Series [6] concerns Nucleic Acid. In words: Ratio of drug level in tumor to blood in mouse S180 cells xenografted Kunming mouse at 370 kBq/0.1 mL, iv after 15 mins by gamma counting. The note with it: tumour, 0.25 h. The series is classed as ADME, organism-based, CCRF S-180.
Series [7] has as its system Spleen. In words: Biodistribution in mouse S180 cells xenografted Kunming mouse spleen at 370 kBq/0.1 mL, iv after 120 mins by gamma counting. The series is classed as ADME, organism-based, CCRF S-180. The note with it: in vivo, 2 h.
Another series has as its system Liver. In words: Biodistribution in mouse S180 cells xenografted Kunming mouse liver at 370 kBq/0.1 mL, iv after 30 mins by gamma counting. The format is ADME, organism-based, CCRF S-180. The note with it: in vivo, 0.5 h.
Series [8] concerns Spleen. Put plainly: Biodistribution in mouse S180 cells xenografted Kunming mouse spleen at 370 kBq/0.1 mL, iv after 5 mins by gamma counting. The format is ADME, organism-based, CCRF S-180. The note with it: in vivo.
Series [9] has as its system Nucleic Acid. Put plainly: Ratio of drug level in tumor to muscle in mouse S180 cells xenografted Kunming mouse at 370 kBq/0.1 mL, iv after 60 mins by gamma counting. The format is ADME, organism-based, CCRF S-180. To be noted: in vivo, 1 h.
Series [10] has as its system Mus musculus. Put plainly: Biodistribution in mouse S180 cells xenografted Kunming mouse tumor at 370 kBq/0.1 mL, iv after 5 mins by gamma counting. The format is ADME, organism-based, Neoplasm, CCRF S-180. The note with it: in vivo.
Series [11] deals with Mus musculus. Put plainly: Biodistribution in mouse S180 cells xenografted Kunming mouse excretory organ at 3.7 MBq, iv after 30 mins by PET imaging analysis. The format is ADME, organism-based, CCRF S-180. The note with it: in vivo, 0.5 h.
Series [12] relates to CCRF S-180. In words: Cellular uptake in mouse S180 cells after 60 mins. The format is ADME, cell-based. The note with it: ccrf s-180, 1 h.
Another series has as its system Lung. In words: Biodistribution in mouse S180 cells xenografted Kunming mouse lung at 370 kBq/0.1 mL, iv after 60 mins by gamma counting. The format is ADME, organism-based, CCRF S-180. The note with it: in vivo, 1 h.
In the next series the test system is Kidney. In words: Biodistribution in mouse S180 cells xenografted Kunming mouse kidney at 370 kBq/0.1 mL, iv after 5 mins by gamma counting. The format is ADME, organism-based, CCRF S-180. The note with it: in vivo.
Series [13] relates to Nucleic Acid. In words: Ratio of drug level in tumor to blood in mouse S180 cells xenografted Kunming mouse at 370 kBq/0.1 mL, iv after 60 mins by gamma counting. The series is classed as ADME, organism-based, CCRF S-180. The note with it: tumour, 1 h.
Series [14] concerns Heart. In words: Biodistribution in mouse S180 cells xenografted Kunming mouse heart at 370 kBq/0.1 mL, iv after 120 mins by gamma counting. The series is classed as ADME, organism-based, CCRF S-180. To be noted: in vivo, 2 h.
Series [15] deals with Muscle tissue. In words: Biodistribution in mouse S180 cells xenografted Kunming mouse muscle at 370 kBq/0.1 mL, iv after 30 mins by gamma counting. The series is classed as ADME, organism-based, CCRF S-180. To be noted: in vivo, 0.5 h.
Series [16] deals with Muscle tissue. Put plainly: Biodistribution in mouse S180 cells xenografted Kunming mouse muscle at 370 kBq/0.1 mL, iv after 60 mins by gamma counting. The format is ADME, organism-based, CCRF S-180. To be noted: in vivo, 1 h.
Series [17] has as its system Spleen. In words: Biodistribution in mouse S180 cells xenografted Kunming mouse spleen at 370 kBq/0.1 mL, iv after 60 mins by gamma counting. The series is classed as ADME, organism-based, CCRF S-180. The note with it: in vivo, 1 h.
For another series, the system named is Brain. In words: Biodistribution in mouse S180 cells xenografted Kunming mouse brain at 370 kBq/0.1 mL, iv after 15 mins by gamma counting. The format is ADME, organism-based, CCRF S-180. The note with it: in vivo, 0.25 h.
Series [18] deals with Mus musculus. Put plainly: Biodistribution in mouse S180 cells xenografted Kunming mouse tumor at 370 kBq/0.1 mL, iv after 30 mins by gamma counting. The format is ADME, organism-based, Neoplasm, CCRF S-180. To be noted: in vivo, 0.5 h.
The test system of series [19] is CCRF S-180. Put plainly: Cellular uptake in mouse S180 cells after 30 mins. The series is classed as ADME, cell-based. The note with it: ccrf s-180, 0.5 h.
For series [20], the system named is Mus musculus. In words: Biodistribution in mouse S180 cells xenografted Kunming mouse left forelimb of tumor at 3.7 MBq, iv after 30 mins by PET imaging analysis. The format is ADME, organism-based, Neoplasm, CCRF S-180. The note with it: in vivo, 0.5 h.
For series [21], the system named is Mus musculus. Put plainly: Biodistribution in mouse S180 cells xenografted Kunming mouse tumor at 370 kBq/0.1 mL, iv after 60 mins by gamma counting. The series is classed as ADME, organism-based, Neoplasm, CCRF S-180. To be noted: in vivo, 1 h.

For `Cc1cc(NCC[18F])n2ncc(C#N)c2n1`, in the series with CCRF S-180 [1], the “fold change (FC)” value was 2. In addition, the Drug uptake in the series on Heart [2] is 3.57 % ID/g; in the series on Muscle tissue [3], 3.84 % ID/g; with Mus musculus [4], “Not Active”; in the series with Blood, 2.95 % ID/g; in the series with Spleen [7], 2.15 % ID/g; with Liver it was 3.17 % ID/g. Also, the Drug uptake in the series with Spleen [8] was 4.66 % ID/g; in the series with Mus musculus [10], 1.88 % ID/g; with Mus musculus [11], “Active”; in the series with CCRF S-180 [12] it was 9%; with Lung, 2.78 % ID/g; in the series on Kidney, 7.93 % ID/g. In addition, the Drug uptake in the series with Heart [14] is reported as 2.59 % ID/g; in the series on Muscle tissue [15], 3.05 % ID/g; with Muscle tissue [16], 2.31 % ID/g; with Spleen [17], 2.82 % ID/g; in the series with Brain, 2.7 % ID/g; in the series on Mus musculus [18] it was 5.51 % ID/g. Also, the Drug uptake result in the series on CCRF S-180 [19] is “Active”; in the series on Mus musculus [20], “Active”; with Mus musculus [21] it was 2.95 % ID/g. Besides, the Ratio is recorded as 1.61 in the series with Nucleic Acid [5], 0.94 in the series with Nucleic Acid [6], 1.28 in the series with Nucleic Acid [9] and 0.81 with Nucleic Acid [13].
For the compound `Cc1cc(NCCNC(=O)c2ccc([N+](=O)[O-])cc2[18F])n2ncc(C#N)c2n1`, the Drug uptake with CCRF S-180 [1] is given as less than 7%; in the series on Heart [2], 2.78 % ID/g; in the series with Muscle tissue [3], 2.07 % ID/g; in the series on Blood it was 0.09 % ID/g; with Spleen [7], 0.14 % ID/g; with Liver it was 7.3 % ID/g. Besides, the Drug uptake in the series on Spleen [8] stood at 4.54 % ID/g; in the series on Mus musculus [10], 2.26 % ID/g; in the series on CCRF S-180 [12], 9%; in the series on Lung it was 0.56 % ID/g; in the series on Kidney, 17.7 % ID/g; in the series on Heart [14], 0.12 % ID/g. Also, the Drug uptake in the series with Muscle tissue [15] amounted to 0.89 % ID/g; in the series with Muscle tissue [16], 0.47 % ID/g; with Spleen [17], 0.53 % ID/g; in the series on Brain it was 0.16 % ID/g; in the series with Mus musculus [18], 1.24 % ID/g; with Mus musculus [21] it was 0.74 % ID/g. For the same compound, the Ratio in the series on Nucleic Acid [5] is reported as 5.13; in the series on Nucleic Acid [6], 0.8; in the series on Nucleic Acid [9], 1.57; in the series on Nucleic Acid [13], 1.66.

Values taken from ChEMBL document CHEMBL1806489, “Synthesis and biological evaluation of novel F-18 labeled pyrazolo[1,5-a]pyrimidine derivatives: potential PET imaging agents for tumor detection” (Bioorg Med Chem Lett, 2011).
